Bounds are passed on as bounds.

In this assay the target is T1, IGF-1R (Homo sapiens, UniProt P08069).
T1 construct: expressed in transfected cells
T1 sequence (P08069 31-1367): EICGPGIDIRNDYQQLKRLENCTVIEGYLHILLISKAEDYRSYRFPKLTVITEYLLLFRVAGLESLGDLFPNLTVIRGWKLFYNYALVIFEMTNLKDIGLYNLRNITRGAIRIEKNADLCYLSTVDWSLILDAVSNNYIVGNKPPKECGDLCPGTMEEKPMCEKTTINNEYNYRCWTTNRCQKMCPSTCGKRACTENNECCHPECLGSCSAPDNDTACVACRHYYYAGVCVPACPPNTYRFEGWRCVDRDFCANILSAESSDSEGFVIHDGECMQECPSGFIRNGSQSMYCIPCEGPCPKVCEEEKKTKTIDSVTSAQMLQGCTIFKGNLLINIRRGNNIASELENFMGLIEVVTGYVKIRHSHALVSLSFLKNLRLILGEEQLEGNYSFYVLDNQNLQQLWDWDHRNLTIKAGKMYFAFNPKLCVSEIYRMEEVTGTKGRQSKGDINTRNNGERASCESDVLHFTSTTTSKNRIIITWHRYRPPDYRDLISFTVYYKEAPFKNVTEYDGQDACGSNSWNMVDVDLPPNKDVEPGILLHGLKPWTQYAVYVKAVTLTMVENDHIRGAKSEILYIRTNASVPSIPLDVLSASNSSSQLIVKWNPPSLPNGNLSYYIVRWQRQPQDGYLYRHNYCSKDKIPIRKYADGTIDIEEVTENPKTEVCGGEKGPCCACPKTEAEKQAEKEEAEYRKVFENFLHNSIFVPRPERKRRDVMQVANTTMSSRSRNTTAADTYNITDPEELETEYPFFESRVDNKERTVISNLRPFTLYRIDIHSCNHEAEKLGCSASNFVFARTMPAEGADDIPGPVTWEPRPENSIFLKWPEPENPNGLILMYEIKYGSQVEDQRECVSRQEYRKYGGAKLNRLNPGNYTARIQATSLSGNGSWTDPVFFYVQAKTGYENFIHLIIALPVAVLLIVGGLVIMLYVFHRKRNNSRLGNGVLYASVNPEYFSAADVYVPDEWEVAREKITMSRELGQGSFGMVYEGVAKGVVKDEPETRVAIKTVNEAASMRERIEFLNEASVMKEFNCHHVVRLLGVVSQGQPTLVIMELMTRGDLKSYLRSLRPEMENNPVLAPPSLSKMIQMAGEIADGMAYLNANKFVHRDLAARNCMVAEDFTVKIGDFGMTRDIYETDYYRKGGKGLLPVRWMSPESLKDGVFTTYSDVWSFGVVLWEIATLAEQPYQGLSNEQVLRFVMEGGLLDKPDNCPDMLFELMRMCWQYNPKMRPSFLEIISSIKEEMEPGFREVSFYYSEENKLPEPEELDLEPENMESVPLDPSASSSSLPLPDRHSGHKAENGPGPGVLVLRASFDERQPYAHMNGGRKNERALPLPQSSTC
The assay is described as follows: Example B-2: IGF-1R Assay (PathHunter cell lines, EC80 agonist challenge, chemiluminescent detection). It counts as cell-based. As to conditions: PathHunter cells, compound 60 minutes at 37° C., EC80 agonist 3 hours; read-out: IC50, Biological Activity against IGF-1R (Table B2). The essentials: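 Read-out is PathHunter chemiluminescence, developed for 1 h at room temperature after a 3 h room-temperature EC80 agonist challenge that followed 60 min compound pre-treatment at 37° C (1% vehicle). IC50 comes from % inhibition normalized to EC80 and vehicle controls.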
By IC50 is commonly meant the midpoint of a concentration-inhibition curve. For the molecule `CC1(C)C(=O)N(c2ccc(C3(C#N)CC3(C)C)cc2)C(=O)N1Cc1ccnc(N[C@H]2[C@@H]3COC[C@@H]32)c1` (stereo partly drawn) [Compound 170, 1-(4-(3-((2-(((1R,5S,6r)-3-oxabicyclo[3.1.0]hexan-6-yl)amino)pyridin-4-yl)methyl)-4,4-dimethyl-2,5-dioxoimidazolidin-1-yl)phenyl)-2,2-dimethylcyclopropane-1-carbonitrile], the 50% inhibitory concentration (IC50) was ≤ 0.5 µM.

With `CC(C)c1ccc(N2C(=O)N(Cc3ccnc(N[C@H]4[C@@H]5COC[C@@H]54)c3)C(C)(C)C2=O)cc1C#N` [Compound 279, 5-(3-((2-(((1R,5S,6r)-3-oxabicyclo[3.1.0]hexan-6-yl)amino)pyridin-4-yl)methyl)-4,4-dimethyl-2,5-dioxoimidazolidin-1-yl)-2-isopropylbenzonitrile], the IC50 is ≤ 0.5 µM.

For `CC(C)Nc1cc(CN2C(=O)N(c3ccc4c(c3)N(S(C)(=O)=O)CC4(C)C)C(=O)C2(C)C)ccn1` [Compound 194, 3-(3,3-dimethyl-1-(methylsulfonyl)indolin-6-yl)-1-((2-(isopropylamino)pyridin-4-yl)methyl)-5,5-dimethylimidazolidine-2,4-dione], the IC50 is ≤ 0.5 µM.

On to `CN1CC(C)(C)c2ccc(N3C(=O)N(Cc4ccnc(NC5CCOCC5)c4)C(C)(C)C3=O)cc21` [Compound 210, 5,5-dimethyl-1-((2-((tetrahydro-2H-pyran-4-yl)amino)pyridin-4-yl)methyl)-3-(1,3,3-trimethylindolin-6-yl)imidazolidine-2,4-dione], for which the IC50 is ≤ 0.5 µM.

On to `CC(C)Nc1cc(CN2C(=O)N(c3ccc(S(=O)(=O)C(C)(C)C)cc3)C(=O)C2(C)C)ccn1` [Compound 354, 3-(4-(tert-butylsulfonyl)phenyl)-1-((2-(isopropylamino)pyridin-4-yl)methyl)-5,5-dimethylimidazolidine-2,4-dione], for which the 50% inhibitory concentration (IC50) was in the range of 0.5 to 2 µM.

In the case of `CC1(C)C(=O)N(c2ccc(C3(C(F)(F)F)CC3)cc2)C(=O)N1Cc1ccnc(NC2CCc3cn[nH]c3C2)c1` (stereo not shown) [Compound 161, 5,5-dimethyl-1-((2-((4,5,6,7-tetrahydro-1H-indazol-6-yl)amino)pyridin-4-yl)methyl)-3-(4-(1-(trifluoromethyl)cyclopropyl)phenyl) imidazolidine-2,4-dione], the IC50 was ≤ 0.5 µM.

In the case of `CC1(Nc2cc(CN3C(=O)N(c4ccc(S(=O)(=O)C(F)(F)F)cc4)C(=O)C3(C)C)ccn2)CC1` [Compound 355, 5,5-dimethyl-1-((2-((1-methylcyclopropyl)amino)pyridin-4-yl)methyl)-3-(4-((trifluoromethyl)sulfonyl)phenyl)imidazolidine-2,4-dione], the IC50 is ≤ 0.5 µM.

As to `Cn1cc(CNc2cc(CN3C(=O)N(c4ccc(S(=O)(=O)C(F)(F)F)cc4)C(=O)C3(C)C)ccn2)cn1` [Compound 344, 5,5-dimethyl-1-((2-(((1-methyl-1H-pyrazol-4-yl)methyl)amino)pyridin-4-yl)methyl)-3-(4-((trifluoromethyl)sulfonyl)phenyl) imidazolidine-2,4-dione], the IC50 was ≤ 0.5 µM.

Regarding `CC1(C)C(=O)N(c2ccc3c(c2)N(S(C)(=O)=O)CC3)C(=O)N1Cc1ccnc2c1CC(=O)N2` [Compound 67, 5,5-dimethyl-3-(1-(methylsulfonyl)indolin-6-yl)-1-((2-oxo-2,3-dihydro-1H-pyrrolo [2,3-b]pyridin-4-yl)methyl)imidazolidine-2,4-dione], the IC50 was > 10 µM.

For `CC1(C)C(=O)N(c2ccc(OC(F)(F)F)c(NC(=O)CN3CCOCC3)c2)C(=O)N1Cc1ccnc2c1CC(=O)N2` [Compound 75, N-(5-(4,4-dimethyl-2,5-dioxo-3-((2-oxo-2,3-dihydro-1H-pyrrolo[2,3-b]pyridin-4-yl)methyl)imidazolidin-1-yl)-2-(trifluoromethoxy)phenyl)-2-morpholinoacetamide], the IC50 is ≤ 0.5 µM.

Regarding `CC(C)(Br)Cc1cn(S(C)(=O)=O)c2cc(N3C(=O)N(Cc4ccnc5c4CC(=O)N5)C(C)(C)C3=O)ccc12` [Compound 41, 3-(3-(2-bromo-2-methylpropyl)-1-(methylsulfonyl)-1H-indol-6-yl)-5,5-dimethyl-1-((2-oxo-2,3-dihydro-1H-pyrrolo[2,3-b]pyridin-4-yl)methyl)imidazolidine-2,4-dione], the IC50 was ≤ 0.5 µM.

As for `CC(C)Nc1cc(CN2C(=O)N(c3cnc4c(c3)N(C)CC4(C)C)C(=O)C2(C)C)ccn1` [Compound 197, 1-((2-(isopropylamino)pyridin-4-yl)methyl)-5,5-dimethyl-3-(1,3,3-trimethyl-2,3-dihydro-1H-pyrrolo[3,2-b]pyridin-6-yl)imidazolidine-2,4-dione], the half-maximal inhibitory concentration (IC50) was 2 to 10 µM.

In the case of `C[C@@H](CC#N)Nc1cc(CN2C(=O)N(c3ccc4c(c3)N(S(C)(=O)=O)CC4(C)C)C(=O)C2(C)C)ccn1` [Compound 215, (S)-3-((4-((3-(3,3-dimethyl-1-(methylsulfonyl)indolin-6-yl)-5,5-dimethyl-2,4-dioxoimidazolidin-1-yl)methyl)pyridin-2-yl)amino)butanenitrile], the IC50 is ≤ 0.5 µM.

For `Cn1cc(CNc2cc(CN3C(=O)N(c4ccc(C5(C(F)(F)F)CC5)cc4)C(=O)C3(C)C)ccn2)cn1` [Compound 169, 5,5-dimethyl-1-((2-(((1-methyl-1H-pyrazol-4-yl)methyl)amino)pyridin-4-yl)methyl)-3-(4-(1-(trifluoromethyl)cyclopropyl)phenyl) imidazolidine-2,4-dione], the IC50 is ≤ 0.5 µM.

For `CC1(C)C(=O)N(c2ccc(C3(C(F)(F)F)CC3)cc2)C(=O)N1Cc1ccnc(NC2CCN(S(C)(=O)=O)C2)c1` (stereo not shown) [Compound 146, 5,5-dimethyl-1-((2-((1-(methylsulfonyl)pyrrolidin-3-yl)amino)pyridin-4-yl)methyl)-3-(4-(1-(trifluoromethyl)cyclopropyl)phenyl) imidazolidine-2,4-dione], the 50% inhibitory concentration (IC50) lay within 0.5 to 2 µM.

For `CC1(C)CN(C(=O)C2CC2)c2cc(N3C(=O)N(Cc4ccnc(N[C@H]5CCOC5)c4)C(C)(C)C3=O)ccc21` [Compound 196, (S)-3-(1-(cyclopropanecarbonyl)-3,3-dimethylindolin-6-yl)-5,5-dimethyl-1-((2-((tetrahydrofuran-3-yl)amino)pyridin-4-yl)methyl)imidazolidine-2,4-dione], the IC50 is ≤ 0.5 µM.

On to `CC(Nc1cc(CN2C(=O)N(c3ccc(C4(C(F)(F)F)CC4)cc3)C(=O)C2(C)C)ccn1)c1cccnc1` (stereo not shown) [Compound 165, 5,5-dimethyl-1-((2-((1-(pyridin-3-yl)ethyl)amino)pyridin-4-yl)methyl)-3-(4-(1-(trifluoromethyl)cyclopropyl)phenyl)imidazolidine-2,4-dione], for which the IC50 is ≤ 0.5 µM.

Regarding `CN1C(=O)Cc2c(CN3C(=O)N(c4ccc(C5(C#N)CCC5)cc4)C(=O)C3(C)C)ccnc21` [Compound 65, 1-(4-(4,4-dimethyl-3-((1-methyl-2-oxo-2,3-dihydro-1H-pyrrolo[2,3-b]pyridin-4-yl)methyl)-2,5-dioxoimidazolidin-1-yl)phenyl)cyclobutane-1-carbonitrile], the IC50 was > 10 µM.

On to `CC(C)(C#N)c1ccc(N2C(=O)N(Cc3ccnc(NC4CCOCC4)c3)C(C)(C)C2=O)cc1` [Compound 153, 2-(4-(4,4-dimethyl-2,5-dioxo-3-((2-((tetrahydro-2H-pyran-4-yl)amino)pyridin-4-yl)methyl)imidazolidin-1-yl)phenyl)-2-methylpropanenitrile], for which the IC50 is ≤ 0.5 µM.

As for `CN1C[C@@H](Nc2cc(CN3C(=O)N(c4ccc(S(=O)(=O)C(F)(F)F)cc4)C(=O)C3(C)C)ccn2)CC1=O` [Compound 323, (S)-5,5-dimethyl-1-((2-((1-methyl-5-oxopyrrolidin-3-yl)amino)pyridin-4-yl)methyl)-3-(4-((trifluoromethyl)sulfonyl)phenyl) imidazolidine-2,4-dione], the IC50 is 2 to 10 µM.

Regarding `CC1(C)CN(S(C)(=O)=O)c2cc(N3C(=O)N(Cc4ccnc(N[C@H]5[C@@H]6COC[C@@H]65)c4)C(C)(C)C3=O)ccc21` [Compound 207, 1-((2-(((1R,5S,6r)-3-oxabicyclo[3.1.0]hexan-6-yl)amino)pyridin-4-yl)methyl)-3-(3,3-dimethyl-1-(methylsulfonyl)indolin-6-yl)-5,5-dimethylimidazolidine-2,4-dione], the half-maximal inhibitory concentration (IC50) was ≤ 0.5 µM.

Take `CC1(C)C(=O)N(c2ccc(C3(C#N)CC3(C)C)cc2)C(=O)N1Cc1ccnc2c1CC(=O)N2` (stereo not shown) [Compound 61, 1-(4-(4,4-dimethyl-2,5-dioxo-3-((2-oxo-2,3-dihydro-1H-pyrrolo[2,3-b]pyridin-4-yl)methyl)imidazolidin-1-yl)phenyl)-2,2-dimethylcyclopropane-1-carbonitrile]: the IC50 is ≤ 0.5 µM.

With `CC1(C)C(=O)N(c2ccc3c(c2)N(S(C)(=O)=O)CC32CC2)C(=O)N1Cc1ccnc2c1CC(=O)N2` [Compound 45, 5,5-dimethyl-3-(1′-(methylsulfonyl)spiro[cyclopropane-1,3′-indolin]-6′-yl)-1-((2-oxo-2,3-dihydro-1H-pyrrolo[2,3-b]pyridin-4-yl)methyl)imidazolidine-2,4-dione], the IC50 was ≤ 0.5 µM.

Take `CN(C)CC(=O)Nc1cc(N2C(=O)N(Cc3ccnc(N[C@H]4[C@@H]5COC[C@@H]54)c3)C(C)(C)C2=O)ccc1OC(F)(F)F` [Compound 281, N-(5-(3-((2-(((1R,5S,6r)-3-oxabicyclo[3.1.0]hexan-6-yl)amino)pyridin-4-yl)methyl)-4,4-dimethyl-2,5-dioxoimidazolidin-1-yl)-2-(trifluoromethoxy)phenyl)-2-(dimethylamino)acetamide]: the IC50 was ≤ 0.5 µM.

For `CC1(C)CN(S(C)(=O)=O)c2cc(N3C(=O)N(Cc4ccnc(N[C@H]5CCOC[C@@H]5F)c4)C(C)(C)C3=O)ccc21` [Compound 241, 3-(3,3-dimethyl-1-(methylsulfonyl)indolin-6-yl)-1-((2-(((3R,4S)-3-fluorotetrahydro-2H-pyran-4-yl)amino)pyridin-4-yl)methyl)-5,5-dimethylimidazolidine-2,4-dione], the IC50 is ≤ 0.5 µM.
